The text below walks through data of ChEMBL document CHEMBL3880401, “Novel aminopyridine derivatives as mGluR5 antagonists” (2006).

Molecules are shown by their SMILES.

The target of the experiment is Metabotropic glutamate receptor 5 (Rattus norvegicus, UniProt P31424). The experiment is described as follows: Displacement of [3H]-MPEP from mGlur5 from Sprague-Dawley rat brain membranes incubated for 1 hr by liquid scintillation spectrometry. It is filed as tissue-based, Membrane. Background: Displacement assays read how much labelled ligand stays bound in the presence of the test substance.
Metabotropic glutamate receptor 5, sequence (P31424 whole entry): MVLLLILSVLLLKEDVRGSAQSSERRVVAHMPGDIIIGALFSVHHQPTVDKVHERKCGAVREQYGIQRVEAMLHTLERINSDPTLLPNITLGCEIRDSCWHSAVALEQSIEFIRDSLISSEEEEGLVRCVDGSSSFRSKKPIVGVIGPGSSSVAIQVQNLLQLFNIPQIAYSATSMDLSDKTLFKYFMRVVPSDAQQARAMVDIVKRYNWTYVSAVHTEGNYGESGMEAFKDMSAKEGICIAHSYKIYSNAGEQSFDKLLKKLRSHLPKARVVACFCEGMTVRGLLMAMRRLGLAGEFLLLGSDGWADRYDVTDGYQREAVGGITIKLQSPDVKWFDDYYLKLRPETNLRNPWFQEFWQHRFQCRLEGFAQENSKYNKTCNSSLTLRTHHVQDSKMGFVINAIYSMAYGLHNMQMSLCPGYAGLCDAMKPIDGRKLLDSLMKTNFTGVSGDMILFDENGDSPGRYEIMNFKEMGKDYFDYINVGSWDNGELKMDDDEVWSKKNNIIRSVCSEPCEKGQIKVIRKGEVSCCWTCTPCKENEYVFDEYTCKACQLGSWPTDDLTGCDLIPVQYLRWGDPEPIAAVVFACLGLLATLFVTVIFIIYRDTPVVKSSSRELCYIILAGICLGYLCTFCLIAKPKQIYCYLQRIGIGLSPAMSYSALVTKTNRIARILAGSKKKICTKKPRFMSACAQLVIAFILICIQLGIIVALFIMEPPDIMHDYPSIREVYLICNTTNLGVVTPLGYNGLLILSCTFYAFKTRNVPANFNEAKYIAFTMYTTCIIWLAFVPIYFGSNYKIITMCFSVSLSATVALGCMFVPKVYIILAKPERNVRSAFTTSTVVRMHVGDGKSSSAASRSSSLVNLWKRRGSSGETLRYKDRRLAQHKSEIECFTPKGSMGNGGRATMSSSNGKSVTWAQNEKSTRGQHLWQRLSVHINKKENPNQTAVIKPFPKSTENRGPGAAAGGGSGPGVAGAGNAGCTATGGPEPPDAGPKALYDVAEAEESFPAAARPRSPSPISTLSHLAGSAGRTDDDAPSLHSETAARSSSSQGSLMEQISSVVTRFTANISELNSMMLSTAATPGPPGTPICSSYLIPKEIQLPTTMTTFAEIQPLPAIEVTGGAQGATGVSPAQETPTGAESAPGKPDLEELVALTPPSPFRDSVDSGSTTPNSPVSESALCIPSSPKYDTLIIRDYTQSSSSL
In the case of `Cc1ccc(N)c(C#Cc2cccc(F)c2)n1`, the IC50 (commonly the concentration that inhibits the measured activity by half) was < 30 nM. `Cc1ccc(N)c(C#Cc2cc(F)cc(F)c2)n1`: the 50% inhibitory concentration (IC50) was < 30 nM. Then `Cc1cc(C)c(N)c(C#Cc2cccc(Cl)c2)n1`, with < 30 nM.

For `Cc1ccc(N)c(C#Cc2cncc(Cl)c2)n1`, the half-maximal inhibitory concentration (IC50) is < 30 nM. Next, `Cc1cc(C)c(N)c(C#Cc2cccc(F)c2)n1`: < 30 nM.
